Results taken from patent US20100120740A1, “PRODRUGS OF FUSED HETEROCYCLIC INHIBITORS OF D-AMINO ACID OXIDASE” (SEPRACOR INC., priority 2008, published 2010).
Values belong to the compound of their own block, whether it stands above or below them.

Assay: Rate of hydrolysis of test compounds to 4H-furo[3,2-b]pyrrole-5-carboxylic acid in pH 7.4 and 2.0 aqueous solutions
Format: physicochemical
Conditions: HPLC; for Hydrolysis rate at pH 7.4: 0.05 M sodium phosphate buffer pH 7.4, 0.013 mg/mL, over 6 hours; for Hydrolysis rate at pH 2.0: water adjusted with phosphoric acid to pH 2.0, 0.013 mg/mL, over 2 hours
Method: 10 mM DMSO solutions of test compounds were diluted with a 0.05 M sodium phosphate buffer (pH 7.4) or water adjusted with phosphoric acid to pH 2.0, with a final concentration of 0.013 mg/mL. Samples were analyzed over either 2 or 6 hours, by HPLC. The amount of test compound and the corresponding acid were determined. The rate of conversion of the test compound was calculated based on formation of the corresponding acid and loss of parent.
The rate of hydrolysis of test compounds to 4H-furo[3,2-b]pyrrole-5-carboxylic acid was evaluated in pH 7.4 aqueous solution over 6 hours, and in pH 2.0 aqueous solution over 2 hours, according to General Procedure 15.

Structure (SMILES): O=C(OCC1CCCO1)c1cc2occc2[nH]1 (centres unmarked) [Compound 11, (tetrahydrofuran-2-yl)methyl 4H-furo[3,2-b]pyrrole-5-carboxylate]
Hydrolysis rate at pH 7.4: No hydrolysis
Hydrolysis rate at pH 2.0: No hydrolysis

Structure (SMILES): Cc1oc(=O)oc1COC(=O)c1cc2occc2[nH]1 [Compound 12, (5-methyl-2-oxo-1,3-dioxol-4-yl)methyl 4H-furo[3,2-b]pyrrole-5-carboxylate]
Hydrolysis rate at pH 7.4: 0.20%/hr
Hydrolysis rate at pH 2.0: No hydrolysis

Structure (SMILES): CN(C)C(=O)COC(=O)c1cc2occc2[nH]1 [Compound 20, 2-(dimethylamino)-2-oxoethyl 4H-furo[3,2-b]pyrrole-5-carboxylate]
Hydrolysis rate at pH 7.4: No hydrolysis
Hydrolysis rate at pH 2.0: No hydrolysis

Structure (SMILES): O=C(OCCN1CCOCC1)c1cc2occc2[nH]1 [Compound 24, 2-morpholinoethyl 4H-furo[3,2-b]pyrrole-5-carboxylate]
Hydrolysis rate at pH 7.4: No hydrolysis
Hydrolysis rate at pH 2.0: No hydrolysis

Results, then the compound that gave them:

Hydrolysis rate at pH 7.4: No hydrolysis
Hydrolysis rate at pH 2.0: No hydrolysis
Structure (SMILES): O=C(OCC(=O)N1CCOCC1)c1cc2occc2[nH]1 [Compound 21a, 2-morpholino-2-oxoethyl 4H-furo[3,2-b]pyrrole-5-carboxylate]

Hydrolysis rate at pH 7.4: No hydrolysis
Hydrolysis rate at pH 2.0: No hydrolysis
Structure (SMILES): O=C(OCC(=O)N1CCC1)c1cc2occc2[nH]1 [Compound 22a, 2-(azetidin-1-yl)-2-oxoethyl 4H-furo[3,2-b]pyrrole-5-carboxylate]

Hydrolysis rate at pH 7.4: 3.46%/hr
Structure (SMILES): CC(OC(=O)c1cc2occc2[nH]1)OC(=O)C(C)C (centres unmarked) [Compound 31b, 1-(isobutyryloxy)ethyl 4H-furo[3,2-b]pyrrole-5-carboxylate]

Hydrolysis rate at pH 7.4: 0.21%/hr
Structure (SMILES): CC(OC(=O)OC1CCCCC1)OC(=O)c1cc2occc2[nH]1 (centres unmarked) [Compound 36b, 1-(cyclohexyloxycarbonyloxy)ethyl 4H-furo[3,2-b]pyrrole-5-carboxylate]
